Measured values: patent US6335465B1, “Sterilized 5-aminolevulinic acid” (Dusa Pharmaceuticals, Inc., priority 1997, dated 2002)

Assay: Color of crystalline ALA hydrochloride in sealed vials after gamma irradiation
Type: physicochemical
Conditions: crystals in sealed 60 ml glass vials after gamma radiation at the target dose (0, 15 or 30 KGys)
Method: ALA hydrochloride salt was obtained from Sochinaz, S.A., Vionnez, Switzerland. 1.65 grams of ALA hydrochloride salt was placed into 60 ml glass vials. 360 vials of crystalline non-irradiated ALA were prepared. of these, 225 vials were sealed under ambient conditions,and were irradiated with gamma radiation as shown in Table 1. Crystalline ALA was first micronized by pulverizing into fine particles a few μm in diameter by a jet mill by Micro-Macinazione, S.A. to determine if further reducing the crystalline size would have any effect on the color of the irradiated ALA. After micronization, 1.65 grams of ALA hydrochloride salt was placed into 60 ml glass vials. A total of 270 vials of crystalline non-irradiated ALA were prepared.

| color | SMILES |
| --- | --- |
| off white | NCC(=O)CCC(=O)O [Comp. Ex. 1, 5-aminolevulinic acid] |
| off white | NCC(=O)CCC(=O)O [Comp. Ex. 2, 5-aminolevulinic acid] |
| off white | NCC(=O)CCC(=O)O [Comp. Ex. 3, 5-aminolevulinic acid] |
| off white | NCC(=O)CCC(=O)O [Comp. Ex. 4, 5-aminolevulinic acid] |
| yellow | NCC(=O)CCC(=O)O [Example 1, 5-aminolevulinic acid] |
| yellow | NCC(=O)CCC(=O)O [Example 2, 5-aminolevulinic acid] |
| yellow | NCC(=O)CCC(=O)O [Example 3, 5-aminolevulinic acid] |
| yellow | NCC(=O)CCC(=O)O [Example 4, 5-aminolevulinic acid] |
| yellow | NCC(=O)CCC(=O)O [Example 5, 5-aminolevulinic acid] |
| yellow | NCC(=O)CCC(=O)O [Example 6, 5-aminolevulinic acid] |
| yellow | NCC(=O)CCC(=O)O [Example 7, 5-aminolevulinic acid] |
| yellow | NCC(=O)CCC(=O)O [Example 8, 5-aminolevulinic acid] |
| yellow | NCC(=O)CCC(=O)O [Example 9, 5-aminolevulinic acid] |
| yellow | NCC(=O)CCC(=O)O [Example 10, 5-aminolevulinic acid] |

Assay: Storage stability of gamma irradiated ALA in the sealed bottle
Type: physicochemical
Conditions: despite the yellow color of the irradiated crystals
Source text: The present invention is based on the finding that sterile ALA can be made and prepared well in advance of its final use, despite the extreme degradation generally found with ALA as noted above.

| degradation after irradiation | SMILES |
| --- | --- |
| had not been degraded | NCC(=O)CCC(=O)O [irradiated crystalline ALA, 5-aminolevulinic acid] |

Assay: Degradation of crystalline ALA under gamma radiation
Type: physicochemical
Conditions: gamma radiation dose of 25 kilograys or greater
Source text: This is significant, in that the United States Food and Drug Administration's (“FDA”) level of gamma irradiation for “overkill” is 25 kilograys. This is a level at which the FDA presumes, without evidence, that virtually all microorganisms have been killed.

| degradation of the ALA at high gamma dose | SMILES |
| --- | --- |
| without detectable degradation | NCC(=O)CCC(=O)O [crystalline ALA, 5-aminolevulinic acid] |

Assay: Comparison of irradiated and non-irradiated ALA (spectroscopic, chromatographic, solution pH, solubility profile, calorimetry; FIGS. 2-14)
Type: physicochemical
Conditions: solution pH or solubility profile, except for the color
Source text: This is explained more fully below with respect to FIGS. 2 to 14.
Although not intending to be bound by any theory, it appears that the color imparted by irradiation is due to F-centers.
The calorimetric measurements of FIGS. 2 and 3 indicate that any major structural differences are present in quantities of less than 1% of the total ALA amount, or that the type of any structural modification is such that the sensitivity of the calorimetric assay to the change is below the capacity of the instrumentation.
Spectral reflectance as shown in FIGS. 4 and 8-10 is very sensitive to spectral differences at or near the surface, while photoacoustic spectroscopy (“PAS”) as shown in FIGS. 5-7 is sensitive to changes both at the surface and the interior of the crystal.
Subsequent analysis of the type described above with respect to FIGS. 2-14, confirmed that there was no discernible difference in structure or pharmacological activity between the irradiated examples and the non-irradiated control comparative examples.

| SMILES | chemical properties versus non-irradiated ALA |
| --- | --- |
| NCC(=O)CCC(=O)O [irradiated crystalline ALA, 5-aminolevulinic acid] | has not been distinguished in any chemical property from non-irradiated ALA |
